Experiments:
[1] = biological target: T1, human Eg5 (monomeric construct Eg52-386) (Homo sapiens, UniProt P52732); assay: In vitro inhibition of the ATPase activity of kinesin Eg5 (pyruvate kinase/lactate dehydrogenase coupled assay); type: biochemical; settings: for % inhibition: in vitro ATPase activity of Eg5, inhibitor concentration not given; for IC50: in vitro inhibition of ATPase activity of Eg5
T1 construct: the basal ATPase activity was measured using 1-4 μM of Eg5 (2-386) for the above test; made in house
T1 sequence (P52732 2-386): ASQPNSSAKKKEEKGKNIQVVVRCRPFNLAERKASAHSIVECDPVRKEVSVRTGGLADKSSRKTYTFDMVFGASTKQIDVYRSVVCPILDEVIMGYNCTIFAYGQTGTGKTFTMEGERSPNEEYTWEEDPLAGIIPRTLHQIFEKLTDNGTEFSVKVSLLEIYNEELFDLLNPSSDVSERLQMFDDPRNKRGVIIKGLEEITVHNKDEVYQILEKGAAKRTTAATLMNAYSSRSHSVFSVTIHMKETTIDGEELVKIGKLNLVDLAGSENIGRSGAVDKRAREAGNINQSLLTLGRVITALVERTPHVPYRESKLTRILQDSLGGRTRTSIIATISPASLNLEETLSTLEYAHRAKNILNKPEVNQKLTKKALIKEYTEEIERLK
Description: All the assays were carried out at ambient temperature using the TECAN 96-well Sunrise photometer with a final volume of 200-250 μl per well. The ATPase contents were measured using the pyruvate kinase/lactate dehydrogenase protocol in an A25A buffer (25 mM potassium ACES, pH 6.9, 2 mM magnesium acetate, 2 mM potassium EGTA, 0.1 mM potassium EDTA, 1 mM mercaptoethanol) . In the […] of MT (microtubules) stabilized with paclitaxel, 300 nM of Eg52-386 were used for the test and, in the absence of MT, the basal ATPase activity was measured using 1-4 μM of Eg5 (2-386) for the above test or the malachite green test. For optimal solubility of the inhibitor, the assays were carried out in the presence of up to 2.2% of DMSO. […] The data were analyzed using a Kaleidagraph 3.0 (Synergy Software) and Microsoft Excel, so as to obtain the IC50 values.
The IC50 values for the in vitro inhibition of the ATPase activity of the kinesin motor proteins are determined according to the method described in S. DeBonis et al. (2003) Biochemistry 42, 338-349. Monastrol was used as a positive control. When necessary, the concentrations of inhibitor were adjusted according to the initial IC50. Each concentration of inhibitor was measured one to three times and averaged data are indicated with the margins of error±the standard deviation.

kinesin Eg5 = biological target: T2, kinesin Eg5 (Homo sapiens, UniProt P52732); settings: prior-art values given in the background; read-out: antimitotic effect IC50; cited from earlier work
T2 sequence (P52732 1-1056): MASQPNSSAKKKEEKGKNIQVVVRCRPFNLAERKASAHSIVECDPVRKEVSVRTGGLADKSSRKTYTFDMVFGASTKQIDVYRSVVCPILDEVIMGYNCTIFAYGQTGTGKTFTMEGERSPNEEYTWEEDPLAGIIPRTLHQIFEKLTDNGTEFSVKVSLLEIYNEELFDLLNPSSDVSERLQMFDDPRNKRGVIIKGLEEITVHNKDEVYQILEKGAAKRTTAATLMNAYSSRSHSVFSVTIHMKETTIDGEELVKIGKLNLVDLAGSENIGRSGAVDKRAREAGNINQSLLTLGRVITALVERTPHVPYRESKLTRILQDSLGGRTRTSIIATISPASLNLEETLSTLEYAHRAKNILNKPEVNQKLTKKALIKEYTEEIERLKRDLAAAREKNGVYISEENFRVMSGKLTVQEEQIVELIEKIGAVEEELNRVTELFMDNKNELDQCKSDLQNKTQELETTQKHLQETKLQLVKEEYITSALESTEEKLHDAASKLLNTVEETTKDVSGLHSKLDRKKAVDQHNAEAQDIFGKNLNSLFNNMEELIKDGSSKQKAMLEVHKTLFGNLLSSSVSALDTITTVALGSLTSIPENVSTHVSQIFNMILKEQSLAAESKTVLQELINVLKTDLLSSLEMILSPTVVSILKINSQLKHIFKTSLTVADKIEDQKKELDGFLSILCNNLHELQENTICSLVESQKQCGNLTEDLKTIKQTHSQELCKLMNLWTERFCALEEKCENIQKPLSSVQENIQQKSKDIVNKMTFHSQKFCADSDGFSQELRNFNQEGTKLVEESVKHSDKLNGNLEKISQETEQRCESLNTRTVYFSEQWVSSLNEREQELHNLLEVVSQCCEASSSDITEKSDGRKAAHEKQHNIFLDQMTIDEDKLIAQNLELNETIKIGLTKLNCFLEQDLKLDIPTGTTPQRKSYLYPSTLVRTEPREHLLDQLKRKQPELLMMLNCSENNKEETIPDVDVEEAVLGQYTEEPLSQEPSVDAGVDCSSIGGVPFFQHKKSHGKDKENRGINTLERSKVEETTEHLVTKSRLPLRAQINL

Structure (SMILES)	% inhibition [1]	IC50 [1]	IC50 (kinesin Eg5)
CCOC(=O)C1=C(C)NC(=S)NC1c1ccccc1 (stereo not drawn) [Compound 1]	80%	9.5 µM	–
CCOC(=O)C1=C(C)NC(=S)NC1c1cccc(O)c1 (stereo not drawn) [Compound 2]	≧90%^	16 µM	–
CCOC(=O)C1=C(C)NC(=S)NC1c1ccc(O)cc1 (stereo not drawn) [Compound 3]	20%	212 µM	–
COc1ccc(C2NC(=S)NC(C)=C2C(=O)OCc2ccccc2)cc1 (stereo not drawn) [Compound 4]	40%	6.6 µM	–
CC1=C(C(=O)OCc2ccccc2)C(c2ccccc2)NC(=S)N1 (stereo not drawn) [Compound 5]	40%	11.8 µM	–
CC1=C(C(=O)OCc2ccccc2)C(c2cccc(O)c2)NC(=S)N1 (stereo not drawn) [Compound 6]	≧90%^	10.3 µM	–
CCOC(=O)C1=C(C)N(C)C(=S)NC1c1ccccc1 (stereo not drawn) [Compound 7]	60%	21 µM	–
CCOC(=O)C1=C(C)N(C)C(=S)NC1c1cccc(O)c1 (stereo not drawn) [Compound 8]	≧90%^	6.3 µM	–
CC(=O)C1=C(C)NC(=S)NC1c1ccccc1 (stereo not drawn) [Compound 9]	≧90%^	24 µM	–
CC(=O)C1=C(C)NC(=S)NC1c1ccc(O)cc1 (stereo not drawn) [Compound 10]	80%	56 µM	–
CC1=C(C(=O)c2ccccc2)C(c2ccc(O)cc2)NC(=S)N1 (stereo not drawn) [Compound 11]	≧90%^	14.7 µM	–
CC(=O)C1=C(C)N(C)C(=S)NC1c1ccccc1 (stereo not drawn) [Compound 12]	40%	80 µM	–
CC1=C(C(=O)c2ccccc2)C(c2ccccc2)NC(=S)N1C (stereo not drawn) [Compound 13]	≧90%^	1.1 µM	–
CC1=C(C(=O)OCc2ccccc2)C(c2cccc(O)c2)NC(=S)N1C (stereo not drawn) [Compound 14]	48%	9.8 µM	–
CC(=O)C1=C(C)NC(=S)NC1c1cccc(O)c1 (stereo not drawn) [Compound 15]	≧90%^	0.51 µM	–
CC(=O)C1=C(C)N(C)C(=S)NC1c1cccc(O)c1 (stereo not drawn) [Compound 16]	40%	133 µM	–
CC1=C(C(=O)c2ccccc2)C(c2cccc(O)c2)NC(=S)N1 (stereo not drawn) [Compound 17]	≧90%^	0.25 µM	–

Structure (SMILES)	% inhibition [1]	IC50 [1]	IC50 (kinesin Eg5)
CC1=C(C(=O)c2ccccc2)C(c2cccc(O)c2)NC(=S)N1C (stereo not drawn) [Compound 18]	≧90%^	–	–
CC1=C(C(=O)c2ccccc2)C(c2ccc(O)cc2)NC(=S)N1C (stereo not drawn) [Compound 19]	87%	24 µM	–
CCOC(=O)C1=C(C)NC(=S)NC1c1cccc(Cl)c1 (stereo not drawn) [Compound 20]	60%	10 µM	–
CCOC(=O)C1=C(C)NC(=S)NC1c1cccc(OC)c1 (stereo not drawn) [Compound 21]	20%	57 µM	–
CCOC(=O)C1=C(C)NC(=S)NC1c1ccccc1F (stereo not drawn) [Compound 22]	60%	20 µM	–
CCOC(=O)C1=C(C)NC(=S)NC1c1ccccc1Cl (stereo not drawn) [Compound 24]	60%	32 µM	–
CCOC(=O)C1=C(C)NC(=S)NC1c1cccc(F)c1 (stereo not drawn) [Compound 25]	60%	14 µM	–
CC1=C(C(=O)c2ccccc2)C(c2ccccc2)NC(=O)N1C (stereo not drawn) [Compound 26]	84%	5 µM	–
CC1=C(C(=O)c2ccccc2)C(c2cccc(O)c2)NC(=O)N1C (stereo not drawn) [Compound 27]	85%	0.8 µM	–
C=CCN1C(=S)NC(c2cccc(O)c2)C(C(=O)c2ccccc2)=C1C(F)(F)F (stereo not drawn) [Compound 28]	70%	17 µM	–
CCOC(=O)C1=C(C(C)C)NC(=S)NC1c1cccc(O)c1 (stereo not drawn) [Compound 29]	80%	8.5 µM	–
CCOC(=O)C1=C(CC)N(C)C(=S)NC1c1cccc(O)c1 (stereo not drawn) [Compound 30]	≧90%^	10 µM	–
CC1=C(C(=O)c2cccc(F)c2)C(c2cccc(O)c2)NC(=S)N1 (stereo not drawn) [Compound 31]	87%	0.82 µM	–
CC1=C(C(=O)c2cccc(Cl)c2)C(c2cccc(O)c2)NC(=S)N1 (stereo not drawn) [Compound 32]	≧90%^	0.5 µM	–
CC1=C(C(=O)c2cccc(I)c2)C(c2cccc(O)c2)NC(=S)N1 (stereo not drawn) [Compound 33]	≧90%^	0.5 µM	–
COc1cccc(C(=O)C2=C(C)NC(=S)NC2c2cccc(O)c2)c1 (stereo not drawn) [Compound 34]	≧90%^	1.1 µM	–
CCOC(=O)C1=C(C)NC(=S)NC1c1cccc(O)c1 (stereo not drawn) [Monastrol]	–	–	> 14 µM

Source: patent publication US20080145453A1, “Novel Dihydropyrimidine Derivatives And Their Use As Anti-Cancer Agents” (priority 2005, published 2008)
